Results published in patent EP1534672B1, “RETINOL DERIVATIVES, THEIR USE IN THE TREATMENT OF CANCER AND FOR POTENTIATING THE EFFICACY OF OTHER CYTOTOXIC AGENTS” (priority 2002, dated 2004).
“And” between values parts separate entries of the source, which are not always exact repeats. Equal entries are not always repeated. Where two headings read alike, the source gives them in different places. Marks after values point to notes of the source that are not given here.

Tests used:
[1] = single dose i.p. toxicity study in rats
Description: (§1) A single dose i.p. toxicity study in rats was carried out. […] The minimal lethal dose is thus above 100 mg/kg body weight for these compounds.

[2] = tested on: Human Breast Adenocarcinoma Cell Line MDA-MB-231; assay: Drug cytotoxicity testing (viable cell count, trypan blue exclusion, cell growth inhibition); type: cell-based
Outline: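 A549 cells (10 × 10^3/well) and MDA-MB-231 cells (12 × 10^3/well) were left to adhere for 24 h, then exposed to drugs in medium with 5% FBS for 2 days. Viable cells were counted by trypan blue exclusion after trypsinization. Growth inhibition (%) = (control − test)/control × 100, from three determinations in six replicates each.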

[3] = tested on: Human Ovary Adenocarcinoma Cell Line SKOV-3; assay: as above; type: cell-based; settings: alone or in formulation at molar ratio 1:6
Description: MDA-MB-231 cells were propagated in MEM culture medium with 2 mM L-glutamine, 10% heat-inactivated fetal bovine serum (FBS) and antibiotics. DU 145 cells were cultured in MEM culture medium containing 2 mM L-glutamine, 1 mM sodium pyruvate, 10% FBS and antibiotics. SKOV-3 cells were cultured in McCoy's 5A culture medium, supplemented with 1,5 mM L-glutamine, 10% FBS and antibiotics. A549 cells were cultured in Ham's F-12 culture medium with 1 mM L-glutamine, 10% FBS and antibiotics. All media and supplements were purchased from Sigma-Aldrich (St.Louis, MO, USA). Cell propagation of all lines was carried out in Falcon™ 25 cm^2 cultivation flasks (Becton Dickinson Labware).
Drug cytotoxicity testing was carried out with using Falcon™ 96-well cultivation plates for adherent cells (Becton Dickinson Labware). These plates were seeded by cells either at 12 × 10^3 MDA-MB-231 cells/well, or at 12 × 10^3 DU 145 cells/well, or at 14 × 10^3 SKOV-3 cells/well, or at 10 × 10^3 A549 cells/well in a volume of 200 µL/well.
The cell cultures in cultivation plates were allowed to adhere for 24 hour of incubation. On day 1 after cell seeding, 2 µL solutions of the drugs to be tested in medium with 5% FBS was added to the cultures. In the control cultures, 2 µL of medium with 5% FBS was added as solvent control. The cells were incubated for 2 consecutive days. At the end of the incubation period adherent cells were detached by trypsinization and the number of viable cells was counted using trypan blue exclusion test and a hemocytometer. All data were derived from an average of three determinations each in six replicates. The results were expressed as mean cell number ± SE and the differences between control and test series evaluated by means of Student's t-test. The drug cytotoxicity was evaluated based on the extent of cell growth inhibition. The cell growth inhibition of the tested drugs was calculated as follows: Cell growth inhibition,% = (Control-TestSeries)/(Control) × 100 [formula]

[4] = rat, in vivo, ip
Description: as §1

[5] = tested on: Human Lung Carcinoma Cell Line A549; assay: Drug cytotoxicity testing (viable cell count, trypan blue exclusion, cell growth inhibition); type: cell-based
[6] = cytotoxic drug alone 10^-8 mol/L, average of positive controls in medium with 5% FBS, normal saline and saline with 2,3 mM CaCl2
[7] = cytotoxic drug alone 10^-9 mol/L, average of positive controls in medium with 5% FBS, normal saline and saline with 2,3 mM CaCl2
[8] = compound alone 10^-7 mol/L, in B (normal saline)
[9] = compound alone 10^-8 mol/L, in B (normal saline)
[10] = compound alone 10^-9 mol/L, in B (normal saline)
[11] = sodium salt, range 10^-9 to 10^-7 M

With `CC1=C(/C=C/C(C)=C/C=C/C(C)=C/C(=O)N[C@@H](CS(=O)O)C(=O)O)C(C)(C)CCC1` (stereo in doubt) [I-2, N-(all-trans-Retinoyl)-L-cysteinesulfinic acid] the minimal lethal dose [1] was “above 100 mg/kg body weight”.

For `CC(=O)O[C@H]1C(=O)[C@@]2(C)[C@H]([C@H](OC(=O)c3ccccc3)[C@]3(O)C[C@H](OC(=O)[C@H](O)[C@@H](NC(=O)c4ccccc4)c4ccccc4)C(C)=C1C3(C)C)[C@]1(OC(C)=O)CO[C@@H]1C[C@@H]2O` [Paclitaxel, paclitaxel, reference compound], the inhibition at 0.01 µM ([2]; Homo sapiens, MDA-MB-231, cytotoxic drug alone 10^-8 mol/L, average of positive controls in medium with 5% FBS, normal saline and saline with 2,3 mM CaCl2, read-out: Cell Growth Inhibition, %) was 43.3%, the inhibition at 0.001 µM ([2]; Homo sapiens, MDA-MB-231, cytotoxic drug alone 10^-9 mol/L, average of positive controls in medium with 5% FBS, normal saline and saline with 2,3 mM CaCl2, read-out: Cell Growth Inhibition, %) was 27.3% and the IC50 ([2]; Homo sapiens, MDA-MB-231, cytotoxic drug alone, average of positive controls, calculated from three concentrations, read-out: IC50 mol/L (a)) was 17 nM. For the same molecule, the “Tumor Cell Number, × 10^3” value ([2]; cytotoxic drug alone 10^-7 mol/L, average of positive controls in medium with 5% FBS, normal saline and saline with 2,3 mM CaCl2) was 16.0±0.72 × 10^3 and 16.6±0.86 × 10^3, the “Cell Growth Inhibition, %” value [2, 6] was 43.9* % and the “Tumor Cell Number, × 10^3” value [2, 6] was 32.2±1.60 × 10^3 and 32.8±1.07 × 10^3. For the same molecule, the “Cell Growth Inhibition, %” value [2, 7] was 27.7* %, the “Tumor Cell Number, × 10^3” value [2, 7] was 41.3±1.93 × 10^3 and 42.3±1.55 × 10^3 and the inhibition at 0.1 µM ([3]; Homo sapiens, SK-OV-3, cytotoxic drug 10^-7 mol/L (100 nM), working solutions in medium with 5% FBS) was 71.1%. For the same molecule, the inhibition at 0.01 µM ([3]; Homo sapiens, SK-OV-3, cytotoxic drug 10^-8 mol/L, working solutions in medium with 5% FBS) was 59.9%, the inhibition at 0.001 µM ([3]; Homo sapiens, SK-OV-3, cytotoxic drug 10^-9 mol/L, working solutions in medium with 5% FBS) was 24.8% and the IC50 ([3]; Homo sapiens, SK-OV-3, as concentration of cytotoxic drug, medium with 5% FBS, calculated from three concentrations, read-out: IC50 mol/L (a)) was 4.5 nM. For the same molecule, the “Tumor Cell Number, × 10^3” value ([3]; cytotoxic drug 10^-7 mol/L (100 nM), working solutions in medium with 5% FBS) was 14.1 ± 0.98 × 10^3, the “Tumor Cell Number, × 10^3” value ([3]; cytotoxic drug 10^-7 mol/L (100 nM), working solutions in medium with 5% FBS, listed as paclitaxel) was 14.6 ± 0.82 × 10^3 and the “Tumor Cell Number, × 10^3” value ([3]; cytotoxic drug 10^-8 mol/L, working solutions in medium with 5% FBS) was 19.9 ± 1.45 × 10^3. The “Tumor Cell Number, × 10^3” value ([3]; cytotoxic drug 10^-9 mol/L, working solutions in medium with 5% FBS) was 37.3 ± 1.80 × 10^3.

For `COC(=O)[C@H](CS(=O)(=O)O)NC(=O)\C=C(C)/C=C/C=C(C)/C=C/C1=C(C)CCCC1(C)C` [compound II-1a, N-(13-cis-retinoyl)-L-cysteic acid methyl ester], the minimal lethal dose [4] was “above 100 mg/kg body weight”, the mortality ([4]; 100 mg/kg) was “did not produce mortality” and the inhibition at 0.1 µM ([5]; Homo sapiens, A549, compound alone 10^-7 mol/L, in A (saline with […] CaCl2)) was 34.4%. It also gave an inhibition at 0.1 µM ([5]; Homo sapiens, A549, compound alone 10^-7 mol/L, in B (normal saline)) of 25.6%, an increase in cell growth inhibition in A over B at 0.1 µM ([5]; Homo sapiens, A549, compound alone 10^-7 mol/L, read-out: Cell growth inhibition in A compared to that in B was increased by) of 11.8% and an inhibition at 0.01 µM ([5]; Homo sapiens, A549, compound alone 10^-8 mol/L, in A (saline with […] CaCl2)) of 26.9%. The inhibition at 0.01 µM ([5]; Homo sapiens, A549, compound alone 10^-8 mol/L, in B (normal saline)) was 15.6%, the increase in cell growth inhibition in A over B at 0.01 µM ([5]; Homo sapiens, A549, compound alone 10^-8 mol/L, read-out: Cell growth inhibition in A compared to that in B was increased by) was 13.4% and the inhibition at 0.001 µM ([5]; Homo sapiens, A549, compound alone 10^-9 mol/L, in A (saline with […] CaCl2)) was 20.4%. The inhibition at 0.001 µM ([5]; Homo sapiens, A549, compound alone 10^-9 mol/L, in B (normal saline)) was 7.2%, the increase in cell growth inhibition in A over B at 0.001 µM ([5]; Homo sapiens, A549, compound alone 10^-9 mol/L, read-out: Cell growth inhibition in A compared to that in B was increased by) was 14.3% and the “number of viable cells” value [5, 8] was 41.5 ± 1.80 × 10^3. For the same molecule, the “number of viable cells” value [5, 9] was 47.1 ± 1.43 × 10^3, the “number of viable cells” value [5, 10] was 51.8 ± 2.48 × 10^3 and the “cell growth inhibition in (A) compared to compound in B” value [5, 11] was ~12%. For the same molecule, the “cell growth inhibition reached on increase of the concentration, in (B)” value ([5]; sodium salt, range 10^-9 to 10^-7 M, dilution in normal saline (B)) was ~26%, the inhibition at 0.1 µM ([2]; Homo sapiens, MDA-MB-231, 48 h, compound alone, final concentration 10^-7 mol/L, working solutions in MEM with 5% FBS, two days, read-out: cell growth inhibition) was 46.5% and the inhibition at 0.01 µM ([2]; Homo sapiens, MDA-MB-231, 48 h, compound alone, final concentration 10^-8 mol/L, working solutions in MEM with 5% FBS, two days, read-out: cell growth inhibition) was 44.1%. It also gave an inhibition at 0.001 µM ([2]; Homo sapiens, MDA-MB-231, 48 h, compound alone, final concentration 10^-9 mol/L, working solutions in MEM with 5% FBS, two days, read-out: cell growth inhibition) of 38.8%, an inhibition at 0.1 µM ([2]; Homo sapiens, MDA-MB-231, compound alone 10^-7 mol/L, in A (saline with […] CaCl2), read-out: cell growth inhibition) of 48.9% and an inhibition at 0.1 µM ([2]; Homo sapiens, MDA-MB-231, compound alone 10^-7 mol/L, in B (normal saline), read-out: cell growth inhibition) of 40.5%. The inhibition at 0.1 µM ([2]; Homo sapiens, MDA-MB-231, compound alone 10^-7 mol/L, read-out: Cell growth inhibition in A compared to that in B was increased by) was 14.1%, the inhibition at 0.01 µM ([2]; Homo sapiens, MDA-MB-231, compound alone 10^-8 mol/L, in A (saline with […] CaCl2), read-out: cell growth inhibition) was 41.7% and the inhibition at 0.01 µM ([2]; Homo sapiens, MDA-MB-231, compound alone 10^-8 mol/L, in B (normal saline), read-out: cell growth inhibition) was 31.2%. For the same molecule, the inhibition at 0.01 µM ([2]; Homo sapiens, MDA-MB-231, compound alone 10^-8 mol/L, read-out: Cell growth inhibition in A compared to that in B was increased by) was 15.2%, the inhibition at 0.001 µM ([2]; Homo sapiens, MDA-MB-231, compound alone 10^-9 mol/L, in A (saline with […] CaCl2), read-out: cell growth inhibition) was 35.8% and the inhibition at 0.001 µM ([2]; Homo sapiens, MDA-MB-231, compound alone 10^-9 mol/L, in B (normal saline), read-out: cell growth inhibition) was 23%. For the same molecule, the inhibition at 0.001 µM ([2]; Homo sapiens, MDA-MB-231, compound alone 10^-9 mol/L, read-out: Cell growth inhibition in A compared to that in B was increased by) was 16.6%, the “number of viable cells” value [2, 8] was 34.1 ± 1.97 × 10^3 and the “number of viable cells” value [2, 9] was 39.4 ± 2.28 × 10^3. For the same molecule, the “number of viable cells” value [2, 10] was 44.1 ± 2.24 × 10^3, the “number of viable cells” value ([2]; compound alone, final concentration 10^-7 mol/L, working solutions in MEM with 5% FBS, two days) was 31.3 ± 2.15 × 10^3 and the “number of viable cells” value ([2]; compound alone, final concentration 10^-8 mol/L, working solutions in MEM with 5% FBS, two days) was 32.7 ± 2.06 × 10^3. For the same molecule, the “number of viable cells” value ([2]; compound alone, final concentration 10^-9 mol/L, working solutions in MEM with 5% FBS, two days) was 35.8 ± 2.50 × 10^3 and the “cell growth inhibition in (A) compared to compound in B” value [2, 11] was ~14%.
